Experimental findings from patent US12404486B1, “Aspergillus oryzae JAAS-32 and use thereof in preparation of larval Hermetia illucens paste protein peptide” (Jiangsu Academy of Agricultural Sciences, priority 2024, dated 2025) are described below.

Common to all, as to test: Oxford cup inhibition zone test of antibacterial Hermetia illucens peptide
Holding throughout (type): cell-based
Conditions in all cases: positive control, 1 mg/ml of chloramphenicol

Test [1] deals with Vibrio alginolyticus. From the text: (§1) Article number (Art. No.) of Staphylococcus aureus: CICC 10306; Art. No. of Escherichia coli: CICC 10372; Art. No. of Vibrio alginolyticus: CICC 10484.
(§2) 1. Extraction of the Antibacterial Peptide of the Larval Hermetia Illucens Paste
(§3) (1) Preparation of an antibacterial peptide extraction solution (10% acetic acid and 0.01 mol/L Na2EDTA).
(§4) (2) The fermentation liquor of larval Hermetia illucens paste in the untreated group and the Aspergillus oryzae fermentation group of Example 2 was mixed with the antibacterial peptide extraction solution well (v: v=1:10), respectively, and liquid-solid extracted for half an hour at 200 rpm and 37° C., then transferred to a centrifugal machine (3500 rpm, 25 min); supernatant was collected as a crude extraction solution of the antibacterial peptide. The crude extraction solution was further frozen-dried to obtain the antibacterial Hermetia illucens peptide.
(§5) 2. Determination of Antibacteral Activity of the Antibacterial Hermetia Illucens Peptide
(§6) […] The concentration of the Staphylococcus aureus solution and Escherichia coli solution as well as Vibrio alginolyticus solution was determined 1.0×10^9 CFU/mL, 1.0×10^9 CFU/mL, and 1.0×10^7 CFU/mL, respectively; proper amount of the Staphylococcus aureus solution and Escherichia coli solution were absorbed and evenly coated on LB media, and the Vibrio alginolyticus solution was coated on a TCBS plate. An Oxford cup having a diameter of 7.5 mm was slightly placed on the LB plate, added with an equivalent amount of the antibacterial Hermetia illucens peptide, and cultured in a 37° C. thermostatic incubator for 10 hours, then the diameter of inhibition zones was observed and measured.

The test system of test [2] is Escherichia coli.
Description: as §1, §2, §3, §4, §5, §6

For test [3], the system named is Staphylococcus aureus.
Description: as §1, §2, §3, §4, §5, §6

As to `O=C(N[C@H](CO)[C@H](O)c1ccc([N+](=O)[O-])cc1)C(Cl)Cl` [chloramphenicol], the “Diameter of inhibition zone” value in test [1] is recorded as 26 mm; in test [2], 17 mm; in test [3], 16 mm.
